Laboratory results reported in ChEMBL document CHEMBL5214949, “Synthesis and biological evaluation of (4-hydroxy-2-(substitued sulfonamido)pyrimidine-5-carbonyl)glycines as oral erythropoietin secretagogues” (Bioorg Med Chem Lett, 2022).
Activity calls are given as the source filed them. The calls are words filed in the database; no cut-off is given here.

Tests used:
[1] = Cytotoxicity against human Hep3B cells assessed as cell viability at 100 ug/ml measured by MTT assay; type: toxicity, cell-based, Hep 3B2; settings: at 100 µg/mL, read-out: Activity
[2] = Cytotoxicity against human Hep3B cells assessed as cell viability at 12.5 ug/ml measured by MTT assay; type: toxicity, cell-based, Hep 3B2; settings: at 12.5 µg/mL, read-out: Activity
[3] = tested on: Mus musculus; test: In vivo inhibition of PHD2 in ICR mouse assessed as increase in serum EPO production at 10 mg/kg, po and measured after 4 hrs by ELISA; type: functional, organism-based
[4] = target: Egl nine homolog 1 (Homo sapiens, UniProt Q9GZT9); test: Inhibition of PHD2 in human Hep3B cells assessed as increase in EPO production measured after 24 hrs by ELISA; type: cell-based
Egl nine homolog 1, sequence (Q9GZT9 whole entry): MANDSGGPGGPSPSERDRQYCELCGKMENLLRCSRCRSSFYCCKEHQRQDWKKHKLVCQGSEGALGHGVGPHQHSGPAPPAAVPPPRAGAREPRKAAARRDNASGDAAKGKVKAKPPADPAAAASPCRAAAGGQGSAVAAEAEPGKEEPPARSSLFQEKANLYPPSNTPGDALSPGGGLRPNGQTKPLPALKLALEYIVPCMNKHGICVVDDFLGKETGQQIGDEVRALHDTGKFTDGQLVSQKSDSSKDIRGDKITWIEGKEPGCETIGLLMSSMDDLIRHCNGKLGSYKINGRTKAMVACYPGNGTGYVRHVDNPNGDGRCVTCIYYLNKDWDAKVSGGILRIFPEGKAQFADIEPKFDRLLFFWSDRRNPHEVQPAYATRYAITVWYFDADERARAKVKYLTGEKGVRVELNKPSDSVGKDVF

Q: For `O=C(O)CNC(=O)c1cnc(NS(=O)(=O)c2ccc(Cl)c(Cl)c2)nc1O`, which viability at 100 ug/ml [1] is on record?
A: 90.9%

Q: And the viability at 12.5 ug/ml [2]?
A: 89.5%

Q: With `O=C(O)CNC(=O)c1cnc(NS(=O)(=O)c2ccccc2)nc1O` as the compound, how does the inhibition [3] read?
A: Active

Q: For `COc1ccc(S(=O)(=O)Nc2ncc(C(=O)NCC(=O)O)c(O)n2)cc1`, which viability at 100 ug/ml [1] is on record?
A: 110%

Q: And the inhibition [3]?
A: Active

Q: What about the viability at 12.5 ug/ml [2] of the same compound?
A: 105%

Q: With `O=C(O)CNC(=O)c1cnc(NS(=O)(=O)c2cccc(Cl)c2)nc1O` as the compound, how does the viability at 100 ug/ml [1] read?
A: 84.4%

Q: And the inhibition [3]?
A: Active

Q: And the EC50 [4]?
A: 1.25 µM

Q: And the viability at 12.5 ug/ml [2]?
A: 95.7%

Q: Which viability at 100 ug/ml [1] does the source give for `O=C(O)CNC(=O)c1cnc(NS(=O)(=O)Cc2ccccc2)nc1O` here?
A: 87.5%

Q: And the inhibition [3]?
A: Active

Q: And the viability at 12.5 ug/ml [2]?
A: 90%

Q: For `O=C(O)CNC(=O)c1cnc(NS(=O)(=O)c2ccc(Br)cc2)nc1O`, which viability at 100 ug/ml [1] is on record?
A: 116%

Q: What about the EC50 [4] of the same compound?
A: 7.97 µM

Q: And the viability at 12.5 ug/ml [2]?
A: 100%

Q: With `Cc1nc(C(=O)NCC(=O)O)c(O)c2ccc(Oc3ccccc3)cc12` [ROXADUSTAT] as the compound, how does the viability at 100 ug/ml [1] read?
A: 58.5%

Q: What about the inhibition [3] of the same compound?
A: Active

Q: And the viability at 12.5 ug/ml [2]?
A: 89.9%

Q: For `O=C(O)CNC(=O)c1cnc(NS(=O)(=O)c2ccc(-c3ccccc3)cc2)nc1O`, which viability at 100 ug/ml [1] is on record?
A: 73.4%

Q: What about the inhibition [3] of the same compound?
A: Active

Q: What about the viability at 12.5 ug/ml [2] of the same compound?
A: 91.9%

Q: With `O=C(O)CNC(=O)c1cnc(NS(=O)(=O)c2ccc(C(F)(F)F)cc2)nc1O` as the compound, how does the viability at 100 ug/ml [1] read?
A: 95.8%

Q: What about the inhibition [3] of the same compound?
A: Active

Q: And the viability at 12.5 ug/ml [2]?
A: 97.2%

Q: For `Cc1ccc(S(=O)(=O)Nc2ncc(C(=O)NCC(=O)O)c(O)n2)cc1`, which viability at 100 ug/ml [1] is on record?
A: 102%

Q: What about the EC50 [4] of the same compound?
A: 9.27 µM

Q: And the viability at 12.5 ug/ml [2]?
A: 98.5%

Q: With `O=C(O)CNC(=O)c1cnc(NS(=O)(=O)c2ccc(Cl)cc2)nc1O` as the compound, how does the viability at 100 ug/ml [1] read?
A: 93.4%

Q: What about the viability at 12.5 ug/ml [2] of the same compound?
A: 85.5%
